The record followed here is US5405864A, “Chemotherapeutic maleimides” (Syntex (U.S.A.) Inc., priority 1993, dated 1995).

One series concerns the target T1, β1 isozyme of PKC (Rattus norvegicus, UniProt P68403).
T1 construct: β1 isozyme of PKC from rat brain; from tissue; host or cells: rat brain
Nature of the series: Protein kinase C inhibition assay (32P incorporation from γ-32P ATP into synthetic peptide substrate). It is filed as biochemical. The following applies: β1 isozyme of PKC from rat brain; 50 μM ATP; five minutes at room temperature. On the procedure:
In vitro activity for protein kinase C inhibition, is quantitated by measuring incorporation of ^32 P from γ-^32 P ATP into synthetic peptide substrates.
Protein Kinase C (PKC) inhibitory activity is quantitated by measuring incorporation of ^32 P from γ-^32 P ATP into synthetic peptide substrates. The inhibitory potential is measured using the β1 isozyme of PKC from rat brain and the synthetic peptide substrate ala-lys-arg-arg-arg-leu-ser-ser-leu-arg-ala.
A reaction mixture containing 25 mM Tris-HCl, pH 7.5, 2.5 mM Mg(NO3), 1.0 mM EGTA, 20 μM substrate, 1 μg/mL phosphatidylserine (PS), 5×10^-6 M diacylglycerol(di-C8), and 50 μM ATP is spiked with γ-^32 P ATP (>5,000 Ci/mmol) to provide approximately 10^6 CPM per reaction and 0.08 μg/mL PKC in a 50 μl volume per well. The assay is run with or without test compound, added at various concentrations. After five minutes incubation at room temperature, the reaction is stopped by the addition of 0.2V of a 50% TCA solution. A 30 μl sample from each well (control and test compound) is then spotted onto Whatman P-81 ion exchange chromatography paper, and 32-P incorporation is then counted on a Beckman LS 5000 TA liquid scintillation counter. The percent inhibition of PKC activated by […] diC8 and 1 μg/mL phosphatydil serine is determined according to the formula: […]
and the concentration necessary to achieve 50% Inhibition is determined.

The subject of series [1] is H82 small cell lung carcinoma (SCLC) cells. Kind of series: Small Cell Lung Carcinoma Xenograft Assay. It is filed as in vivo, Female athymic nude mice. The protocol:
(§1) In vivo activity for chemotherapeutic agents, particularly for treating malignant diseases, is determined by tumor inhibition assays, for example as described by Maneckjee, et al., in Proc. Natl. Acad. Sci. USA, Vol 89, 1169-1173 (February 1992). Variations of the assay can be performed, e.g., using HT-29 colon carcinoma cells, SCLC H82 cells, CHO/PKC-β and CHO/PKC-ε cells.
This procedure is a modification of a procedure described by Maneckjee, et al., in Proc. Natl. Acad. Sci. USA, Vol 89, 1169-1173 (February 1992).
(§2) H82 small cell lung carcinoma (SCLC) cells are thawed from frozen stock and grown in RPMI. Prior to injection, the cells are trypsinized, counted, and resuspended in PBS:solubilized basement membrane preparation (Matrigel®) (1:2) to concentrations of 5×10^5 or 1.5×10^6 […]. Female athymic nude mice, 4-5 weeks old (Harlan Sprague Dawley) receive 200R/mouse irradiation one day prior to challenge, and are given 0.2 ml SCLC/mouse by subcutaneous injection in the flank (concentrations of 1×10^5 or 3×10^5 SCLC cells/mouse). Groups of 30 mice are treated intraperitoneally, once a day, with test compound at 10 mg/kg (solubilized in DMSO and diluted to final vehicle concentration of 20% DMSO in PBS). Treatments are started 2 hours post-challenge and continue for 45 days. Vehicle treated and untreated mice are used as controls.
(§3) Statistical Analysis: A Fisher Exact test [Kendall M., Stuart A., The Advanced Theory of Statistics, Vol., 2 (MacMillan Pub. Co. N.Y., 1979)] is used to compare tumor occurrence rates between groups. The Mann Whitney U test [Hollander N., Wolfe D. A., Non-parametric Statistical Methods (John Wiley and Sons, Inc., N.Y., 1973)] is used to compare differences in survival time and a log rank test (Kalbfleisch J. D., Prentice R. L., The Statistical Analysis of Failure Time Data (John Wiley and Sons, Inc., N.Y. 1980)] is used to compare the time for each tumor to reach 2000 mm^3.

The next series deals with HT-29 colon cancer cells. Nature of the series: Colon Carcinoma Xenograft Assay. It is filed as in vivo, Female athymic nude mice. The protocol:
as §1, §2, §3
By following the procedure of Example 18 and substituting H82 small cell lung carcinoma cells with HT-29 colon cancer cells, grown to a concentration of 5×10^6 cells/ml and administered at a concentration of 1×10^6 cells/mouse, activity against colon carcinoma is determined.

Series [2] in a line: toxicity in mice of the Small Cell Lung Carcinoma Xenograft Assay. The class given is in vivo, Female athymic nude mice. The protocol:
as §2

Series [3] has as its system colon carcinoma cell line HT-29. Kind of series: tumor cell growth inhibition in culture, colon carcinoma cell line HT-29. The conditions noted are these: Homo sapiens, read-out: GI50 (concentration to inhibit tumor cell growth in culture by 50%). The class given is cell-based. The text has this: (§4) The compounds of the present invention are protein kinase C inhibitors useful as chemotherapeutic agents for treating mammals, particularly humans, having a variety of malignant disease states including: small cell lung carcinoma, colon carcinoma, breast tumors corresonding to MCF7, MDA-MB-435 and MDA-N cell lines, and PKC overexpressing tumors, such as those corresponding to CHO/PKC-ε. […] For example, 3-[1-(3-isothioureidopropyl)-2-(thianaphthen-2-yl)indol-3-yl]-1H-pyrrole-2,5-dione has a GI50 (concentration to inhibit tumor cell growth in culture by 50%) of […] against breast cell line MDA-N versus 1 μM against colon carcinoma cell line HT-29.

A further series deals with breast cell line MDA-N. Nature of the series: tumor cell growth inhibition in culture, breast cell line MDA-N. The following applies: Homo sapiens, read-out: GI50 (concentration to inhibit tumor cell growth in culture by 50%). The class given is cell-based.
Text: as §4

T1 sequence (P68403 whole entry): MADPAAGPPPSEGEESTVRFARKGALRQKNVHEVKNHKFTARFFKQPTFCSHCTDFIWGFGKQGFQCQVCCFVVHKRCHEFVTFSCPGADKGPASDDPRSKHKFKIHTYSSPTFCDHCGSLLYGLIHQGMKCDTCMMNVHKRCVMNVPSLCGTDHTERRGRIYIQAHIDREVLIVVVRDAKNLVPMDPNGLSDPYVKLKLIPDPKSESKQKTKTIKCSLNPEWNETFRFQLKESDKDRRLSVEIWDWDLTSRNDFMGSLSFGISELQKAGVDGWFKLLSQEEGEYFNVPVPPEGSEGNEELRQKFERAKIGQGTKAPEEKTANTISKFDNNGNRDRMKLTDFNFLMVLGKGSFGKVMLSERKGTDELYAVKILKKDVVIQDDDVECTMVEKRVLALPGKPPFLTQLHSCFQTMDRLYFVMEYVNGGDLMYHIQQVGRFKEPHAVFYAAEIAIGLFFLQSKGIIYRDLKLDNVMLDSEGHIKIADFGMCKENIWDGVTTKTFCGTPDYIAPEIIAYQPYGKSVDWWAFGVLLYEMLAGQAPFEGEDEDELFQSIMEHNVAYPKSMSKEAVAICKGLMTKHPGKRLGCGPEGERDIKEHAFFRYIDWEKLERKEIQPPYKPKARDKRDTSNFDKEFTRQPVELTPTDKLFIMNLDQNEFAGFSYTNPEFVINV

The term IC50 denotes the midpoint of a concentration-inhibition curve. Low values mean higher potency, high ones lower potency. `NCCCn1c(-c2cc3ccccc3s2)c(C2=CC(=O)NC2=O)c2ccccc21` [3-[1-(3-aminopropyl)-2-(thianaphthen-2-yl)indol-3-yl]-1H-pyrrole-2,5-dione] gave an IC50 against β1 isozyme of PKC of 40 nM.

One may read the LD50 as the dose expected to kill half of the subjects tested. In the case of `N=C(N)SCCCn1c(-c2cc3ccccc3s2)c(C2=CC(=O)NC2=O)c2ccccc21` [3-[1-(3-isothioureidopropyl)-2-(thianaphthen-2-yl)indol-3-yl]-1H-pyrrole-2,5-dione], in series [1] (10 mg/kg intraperitoneally once a day, 45 days), the “prevention of SCLC tumor formation (in words)” value was “not preventing SCLC tumor formation entirely”. In addition, the “inhibition of tumor growth (in words)” value in series [1] (SCLC H82 xenograft, 10 mg/kg intraperitoneally once a day, 45 days) is listed as “did significantly slow tumor growth”; in the series with HT-29 colon cancer cells (HT-29 xenograft, 1×10^6 cells/mouse, 10 mg/kg i.p. once a day (procedure of Example 18)), “did significantly slow tumor growth”. Also, the “tumor size, fold smaller than vehicle-treated or untreated control groups” value in series [1] (challenge of 1×10^5 SCLC cells/mouse, 10 mg/kg i.p. once a day) is given as ~3 fold; in series [1] (challenge of 3×10^5 SCLC cells/mouse, 10 mg/kg i.p. once a day) it was “approximately 2 fold”; with HT-29 colon cancer cells (HT-29, 1×10^6 cells/mouse, procedure of Example 18), “approximately 1.5 fold”. The “median time for the tumor volume to reach 2000 mm^3” value in series [1] (challenge of 1×10^5 SCLC cells/mouse, 10 mg/kg i.p. once a day, vehicle-treated control Day 35 (p<0.001)) is > 42 days; in series [1] (challenge of 3×10^5 SCLC cells/mouse, 10 mg/kg i.p. once a day, vehicle-treated control Day 31 (p<0.001)), 39 days; with HT-29 colon cancer cells (HT-29, 1×10^6 cells/mouse, vehicle-treated control Day 33 (p<0.01)), 37 days. Further, the “extension of median time for the tumor volume to reach 2000 mm^3” value in series [1] (challenge of 1×10^5 SCLC cells/mouse, 10 mg/kg i.p. once a day, vs vehicle-treated control Day 35 (p<0.001)) is reported as > 7 days; in series [1] (challenge of 3×10^5 SCLC cells/mouse, 10 mg/kg i.p. once a day, vs vehicle-treated control Day 31 (p<0.001)), 8 days; in the series with HT-29 colon cancer cells (HT-29, 1×10^6 cells/mouse, vs vehicle-treated control Day 33 (p<0.01)) it was 4 days. Moreover, the “number of mice having tumors ≥2000 mm^3 at Day 42 of treatment (in words)” value in series [1] (either challenge level (3×10^5 or 1×10^5 SCLC cells/mouse), 10 mg/kg i.p. once a day, p<0.05) was “reduced with either challenge level”; in the series with HT-29 colon cancer cells (HT-29, 1×10^6 cells/mouse, p<0.05) it was “reduced”. In the series with HT-29 colon cancer cells (1×10^6 cells/mouse, procedure of Example 18), the “prevention of HT-29 tumor formation (in words)” value is recorded as “not preventing HT-29 tumor formation entirely”. On β1 isozyme of PKC, half-maximal inhibition (IC50) required 3 nM. Also, the “toxicity (in words)” value in series [2] (10 mg/kg intraperitoneally once a day) was “exhibitied toxicity at 10 mg/kg”. Further, in series [2] (mouse, in vivo, ip, after 6 days, read-out: chronic LD50), the 50% lethal dose (LD50) at 144 h was ~20 mg/kg. Also, the values for the GI50 (in series [3]; in the series on breast cell line MDA-N) were 1000 nM and 10 nM, respectively.
